# From US11607407B2, “Dermal pharmaceutical compositions of 1-methyl-2′,6′-pipecoloxylidide and method of use” (priority 2010, dated 2023)
# Where two headings read alike, the source gives them in different places.
# Columns and labels:
# [1] = Effect of formulation pH on flux, Franz-diffusion cell, nylon membrane; type: in vitro ADME; conditions: for Total flux: Mepivacaine 10% w/w, HPMC K4M 3% gel
# Experimental: The influence of pH on the permeability of mepivacaine HCl from a variety of gel dosage forms was evaluated. The in-vitro drug release from gel formulations was studied across the Nylon 6, 6 membrane (0.22 μm) using Franz-diffusion cell with effective surface area of 3.14 cm^2 and receptor cell volume of 18 mL. The receptor compartment was filled with PBS pH 6.8 and maintained at 37±0.5° C. with constant magnetic stirring. 0.3-0.5 gm of gel was placed on the donor compartment. The samples (1 mL) were collected from the receptor compartment (dilutions made if required) at predetermined time interval for a period of 6-8 h and replaced by equal volume of fresh receptor solution to maintain constant volume. The amount of drug in the samples was assayed spectrophotometrically at 263 nm against appropriate blank. Studies were carried using HPMC K4M 3% as gelling agent with or without containing carvone (0.5%) as a penetration enhancer, so as to assess the effects of pH per se and pH in the presence of penetration enhancers. When Carbopol 3% was used as gelling agent, it gets precipitated out at pH below 5. HPMC gel formulations at pH 8.5 result in precipitation of mepivacaine from the gel. […] The maximum flux was obtained at pH 7.5.
# [2] = in vivo; cited from earlier work
# [3] = cited from earlier work
# [4] = Solubility of mepivacaine base in formulation solvents; type: physicochemical; conditions: 2.5 g in 2.5 g of propylene glycol
# Description: 2.5 g Mepivacaine base was suspended in 2.5 g of propylene glycol.
# [5] = system: combined HIV viral envelope protein (gp120) and NRTI model of painful HIV-associated peripheral neuropathy; test: Thermal hyperalgesia, zalcitabine plus gp120 model; type: in vivo, rat; conditions: for thermal hyperalgesia, difference from control: p ≤0.05
# Description: (§1) This study evaluated the effects of topical mepivacaine in DMSO painful HIV-associated peripheral neuropathy. HIV peripheral neuropathy in the rat was induced by sciatic nerve exposure to zalcitabine plus gp120.
# (§2) Under anesthesia, the left sciatic nerve of male rats was isolated by blunt dissection of the biceps, without damaging the perineurium. The HIV-1 viral envelope protein, gp120 was embedded in a carrier matrix and delivered directly to the sciatic nerve. The muscular layer was closed using 3-0 silk and the skin sealed with veterinarian-grade cyanoacrylate. Rats received intravenous tail injection of zalcitabine.
# (§3) A gauze pad was saturated with either mepivacaine in DMSO (vehicle) or vehicle alone and secured to the left plantar hind paw for 5 min. Rats were immediately tested after removal of the pad. Rats were then tested again at 5, 10 and 15 minutes after removal of the pad. Mepivacaine was tested at various concentrations. The treatment assignment was masked. A period of 48 hrs was allowed between retesting of the rats. The continued presence of hyperalgesia in the rats was confirmed by pre-drug application baseline testing on each test day.
# (§4) Plantar hind paw response to noxious heat and pressure application was evaluated before and one week following sciatic nerve surgery to confirm onset of hyperalgesia following gp120 administration. Following 15-20 min acclimation in the test chamber, a thermal heat stimulus was aimed at the mid-plantar hind paw as rats stand on a glass surface. The latency to a withdrawal response was recoded electronically. The stimulus intensity was adjusted to result in mean pre-surgical baseline latencies of approximately 12 seconds. Each hind paw was tested once to obtain a hind paw withdrawal latency. Mechanical allodynia was assessed by application of increasing pressure (32 g/sec) to the plantar hind paw over time. The withdrawal threshold (measured in grams) was reached when the rat withdrew its paw from the apparatus. The pre-surgical withdrawal threshold of naïve rats was about 175 g. […]
# [6] = system: gp120 model of painful HIV-associated peripheral neuropathy; test: Thermal hyperalgesia (hind paw withdrawal latency), gp120 model; type: in vivo, rat; conditions: for thermal hyperalgesia, difference from control: p ≤0.05
# Description: (§5) This study evaluated the effects of topical mepivacaine in DMSO painful HIV-associated peripheral neuropathy. HIV peripheral neuropathy in the rat was induced by sciatic nerve exposure to gp120.
# (§6) Under anesthesia, the left sciatic nerve of male rats was isolated by blunt dissection of the biceps, without damaging the perineurium. The HIV-1 viral envelope protein, gp120 was embedded in a carrier matrix and delivered directly to the sciatic nerve. The muscular layer was closed using 3-0 silk and the skin sealed with veterinarian-grade cyanoacrylate.
# as §3
# (§7) Plantar hind paw response to noxious heat and pressure application was evaluated before and one week following sciatic nerve surgery to confirm onset of hyperalgesia following gp120 administration. Following 15-20 min acclimation in the test chamber, a thermal heat stimulus was aimed at the mid-plantar hind paw as rats stand on a glass surface. The latency to a withdrawal response was recoded electronically. The stimulus intensity was adjusted to result in mean pre-surgical baseline latencies of approximately 12 seconds. Each hind paw was tested once to obtain a hind paw withdrawal latency. Mechanical allodynia was assessed by application of increasing pressure (32 g/sec) to the plantar hind paw over time. The withdrawal threshold (measured in grams) was reached when the rat withdrew its paw from the apparatus. The pre-surgical withdrawal threshold of naïve rats was about 175 g. Each hind paw was tested once to obtain a hind paw withdrawal threshold. Antinociception, or analgesia, was defined quantally as an increase in response over baseline.
# (§8) Statistical analysis for thermal hyperalgesia and mechanical allodynia were performed and statistical significance was declared if the two-sided p-value was ≤0.05. All computations were performed using SigmaStat™ for Windows™, Version 3.5.
# tail-flick model = test: Tail-flick assay; type: in vivo, mice; conditions: for tail-flick latency, difference from control: p ≤0.05
# Experimental: This study evaluated the effects of topical in DMSO mepivacaine in the tail-flick model.
# Male mice were maintained on a 12-h light/dark cycle with food and water available ad libitum. Mice were housed in groups of five until testing
# Drugs were given topically in DMSO (vehicle) on the tail by immersion of the tail in treatment solution for 5 minutes. Tail-flick latencies were then determined on the region of the tail immersed in the drug, unless otherwise stated. Mice were immediately tested after removal of the tail from the treatment solution and retested at 5 and 10 minutes. Mepivacaine was tested at various concentrations. The treatment assignment was masked.
# Analgesia was assessed with the tail-flick assay. Responses were measured by exposing the distal part of the tail to a thermal stimulus, and the latency of exposure was determined. The tail flick latency is the time interval between onset of the heat stimulus and withdrawal of the tail the thermal stimulus. Baseline latencies ranged from 2 to 3 s. Testing was performed immediately after termination of topical administration into the tail and at 5 and 10 minutes thereafter. Antinociception, or analgesia, was defined quantally as an increase in response over baseline.
# Statistical analysis was performed and statistical significance was declared if the two-sided p-value was ≤0.05. All computations were performed using SigmaStat™ for Windows™, Version 3.5.
# [7] = in vivo; cited from earlier work; remark: listed apart in the source
# [8] = system: isolated dorsal root ganglion neurons from chick embryos; conditions: cited from earlier work
# [9] = system: gp120 model of painful HIV-associated peripheral neuropathy; test: Mechanical allodynia (hind paw withdrawal threshold), gp120 model; type: in vivo, rat; conditions: for mechanical allodynia, difference from control: p ≤0.05
# Description: as §5, §6, §3, §7, §8
# [10] = system: combined HIV viral envelope protein (gp120) and NRTI model of painful HIV-associated peripheral neuropathy; test: Mechanical allodynia, zalcitabine plus gp120 model; type: in vivo, rat; conditions: for mechanical allodynia, difference from control: p ≤0.05
# Description: as §1, §2, §3, §4
# rat sciatic nerve = conditions: cited from earlier work
# postherpetic neuralgia = conditions: Sindrup and Jensen; cited from earlier work
# [11] = topical in DMSO, pad on hind paw 5 min
compound,measurement,setting,value
"Cc1cccc(C)c1NC(=O)C1CCCCN1C.Cl (racemic) [mepivacaine hydrochloride, 2-piperidinecarboxamide, N(2,6-dimethylphenyl)-1-methyl-, monohydrochloride]",formulation pH at which the maximum flux was obtained,[1]; HPMC gels pH 4.5-7.5,7.5
"Cc1cccc(C)c1NC(=O)C1CCCCN1C (stereo not drawn) [Mepivacaine, 1-methyl-2′,6′-pipecoloxylidide]",administered dose excreted into the bile as metabolites,[2],over 50%
same,bound to plasma proteins,[2],approximately 75%
same,excreted unchanged in the urine,[2],less than 10%
same,Total flux,"[1]; carvone 0.5% w/w, pH 4.5",0.4251 mg/cm^2/hr
same,Total flux,"[1]; carvone 0.5% w/w, pH 5.5",0.5847 mg/cm^2/hr
same,Total flux,"[1]; carvone 0.5% w/w, pH 6.8",0.7245 mg/cm^2/hr
same,Total flux,"[1]; carvone 0.5% w/w, pH 7.5",0.8035 mg/cm^2/hr
same,Total flux,"[1]; no carvone, pH 4.5",0.4095 mg/cm^2/hr
same,Total flux,"[1]; no carvone, pH 5.5",0.6000 mg/cm^2/hr
same,Total flux,"[1]; no carvone, pH 6.8",0.7531 mg/cm^2/hr
same,Total flux,"[1]; no carvone, pH 7.5",0.7442 mg/cm^2/hr
same,solubility in EtOH,[3],40 g/100 ml
same,solubility in propylene glycol,[4],not sufficiently soluble
same,"thermal hyperalgesia, difference from control",[5]; 2 mg/mL,significantly different from control
same,"thermal hyperalgesia, difference from control",[5]; 4 mg/mL,significantly different from control
same,"antinociceptive effects, section Thermal Hyperalgesia (text says mechanical allodynia)",[5]; [11],short lived and variable antinociceptive effects
same,"thermal hyperalgesia, difference from control",[6]; 2 mg/mL,significantly different from control
same,"thermal hyperalgesia, difference from control",[6]; 4 mg/mL,significantly different from control
same,"thermal hyperalgesia, difference from control",[6]; 8 mg/mL,significantly different from control
same,antinociceptive effects for thermal hyperalgesia,[6]; [11],short lived and variable antinociceptive effects
same,"tail-flick latency, difference from control",tail-flick model; 4 mg/mL,significantly different from control
same,"tail-flick latency, difference from control",tail-flick model; 8 mg/mL,significantly different from control
same,analgesia in tail-flick assay,tail-flick model; tail immersed 5 minutes in DMSO solution,short lived and variable analgesia
same,irritation or tissue damage,[7],does not ordinarily produce irritation or tissue damage
same,methemoglobinemia,[7],does not cause methemoglobinemia
same,"IC50 in the growth cone collapse assay, rank among lidocaine, bupivacaine, mepivacaine, ropivacaine",[8],highest
same,"mechanical allodynia, difference from control",[9]; 2 mg/mL in DMSO,significantly different from control
same,"mechanical allodynia, difference from control",[9]; 4 mg/mL in DMSO,significantly different from control
same,"mechanical allodynia, difference from control",[9]; 8 mg/mL in DMSO,significantly different from control
same,antinociceptive effects for mechanical allodynia,[9]; [11],short lived and variable antinociceptive effects
same,"mechanical allodynia, difference from control",[10]; 2 mg/mL,significantly different from control
same,"mechanical allodynia, difference from control",[10]; 4 mg/mL,significantly different from control
same,antinociceptive effects for mechanical allodynia,[10]; [11],short lived and variable antinociceptive effects
CCCCN1CCCCC1C(=O)Nc1c(C)cccc1C (stereo not drawn) [bupivacaine],neuronal damage in rat sciatic nerve,rat sciatic nerve; 0.75% (23.1 mM),do not
CCN(CC)CC(=O)Nc1c(C)cccc1C [lidocaine],neuronal damage in rat sciatic nerve,rat sciatic nerve; 80 mM (2.17%),induced neuronal damage
same,"IC50 in the growth cone collapse assay, rank among lidocaine, bupivacaine, mepivacaine, ropivacaine",[8],lowest
COc1ccc2c3c1O[C@H]1C(=O)CC[C@@]4(O)[C@@H](C2)N(C)CC[C@]314 [oxycodone],NNT values in postherpetic neuralgia,postherpetic neuralgia,2.5
"COc1cc(CNC(=O)CCCC/C=C/C(C)C)ccc1O [topical capsaicin, capsaicin]",NNT values in postherpetic neuralgia,postherpetic neuralgia,5.3
